Data on two molecules can be found in US20050059684A1, “Method for reducing residual alcohols in crystalline valacyclovir hydrochloride” (priority 2002, published 2005).

Structures can show the parent of a compound that is named as a salt.

The nature of the data set: Storage stability of valacyclovir hydrochloride: N′-formylvalacyclovir impurity level by HPLC. The data set is classed as physicochemical. Particulars: HPLC area percent; for N′-formylvalacyclovir level (area %), T = 0: before storage; for N′-formylvalacyclovir level (area %), T = 3 month, 25° C., 60% humidity: stored three months at 25° C. and 60% RH; for N′-formylvalacyclovir level (area %), T = 3 month, 40° C., 75% humidity: stored three months at 40° C. and 75% RH. An excerpt: When used herein in connection with the absolute amount of an impurity, percent refers to area percent of the corresponding impurity peak on the chromatogram obtained by high pressure liquid chromatography. [drawing 2]
Impurities in valacyclovir, especially N′-formylvalacyclovir, can be measure by high pressure liquid chromatography. The chromatographic method utilizes a suitable chromatography column such as the reverse phase column Inertsil ODS-3V 5 μm 150×4.6 mm (GL Sciences, Cat. No. 5020-01731). The eluent is preferably acetonitrile (27%) and water (73%) containing 0.05% phosphoric acid (0.5 g 85% H3PO4 in 1 L water). A flow rate of about 1.0 mL/min is suitable for the separation. The column temperature can be at ambient temperature, preferably about 25° C. The detector can be a UV-spectrophotometer operating in the range of 200-600 nm, preferably about 210 nm. The injection (sample) volume is about 50 μL. The diluent used to load the sample onto the column can be, for example, the eluent.
A sample of valacyclovir hydrochloride (sample X) having circa 1700 ppm residual solvent isopropanol was divided into two portions. One portion was treated by the method of the present invention and, after treatment, had less than 500 ppm residual isopropanol (sample Y). Sample Y and the non-treated portion of sample X were each divided into two roughly equal portions. One portion of each samplewas stored at 25° C. and 60% RH for three months, the other portions of each were stored at 40° C. and 75% RH for three months. The amount of N′-formylvalacyclovir in each of the four portions after storage was determined by HPLC.

`CC(C)C(N)C(=O)OCCOCn1cnc2c(=O)nc(N)[nH]c21` (stereo not drawn) [X, valacyclovir hydrochloride]: the “N′-formylvalacyclovir level (area %), T = 0” value worked out at 0.05 area %; the “N′-formylvalacyclovir level (area %), T = 3 month, 25° C., 60% humidity” value is given as 0.08 area %; the “N′-formylvalacyclovir level (area %), T = 3 month, 40° C., 75% humidity” value came to 0.15 area %.

On to `CC(C)C(N)C(=O)OCCOCn1cnc2c(=O)nc(N)[nH]c21` (stereo not drawn) [Y, valacyclovir hydrochloride], for which the “N′-formylvalacyclovir level (area %), T = 0” value came to 0.03 area %; the “N′-formylvalacyclovir level (area %), T = 3 month, 25° C., 60% humidity” value was 0.03 area %; the “N′-formylvalacyclovir level (area %), T = 3 month, 40° C., 75% humidity” value is recorded as 0.05 area %.
